# Assay results reported in publication PMC8286840, “Identifying SARS-CoV-2 antiviral compounds by screening for small molecule inhibitors of Nsp3 papain-like protease” (Biochemical Journal, 2021).
# Structures can show the parent of a compound that is named as a salt. Where two headings read alike, the source gives them in different places.
# Columns and labels:
# [1] = molecular target: T1, SARS-CoV-2 PLpro (nsp3 1564–1878) (Severe acute respiratory syndrome coronavirus 2, UniProt P0DTD1); experiment: biochemical; design: FRET-quenched peptide (Pro3) cleavage by PLpro, 10 min pre-incubation, slope over 20 min, normalised to no-compound control; conditions: high concentration screen, read-out: % of control remaining
# [2] = molecular target: T1, SARS-CoV-2 PLpro (nsp3 1564–1878); experiment: biochemical; design: FRET-quenched peptide (Pro3) cleavage by PLpro, 10 min pre-incubation, slope over 20 min, normalised to no-compound control; conditions: low concentration screen, read-out: % of control remaining
smiles,measurement,setting,value
N[C@H](CO)C(=O)O [(R)-Serine],remaining activity at 3.75 µM,[1]; Well no.=7739,100%
same,remaining activity at 1.25 µM,[2]; Well no.=7739,99.9%
"O[C@H](c1cc(C(F)(F)F)nc2c(C(F)(F)F)cccc12)[C@@H]1CCCCN1 [(R)-[2,8-bis(trifluoromethyl)-4-quinolinyl][(2S)-2-piperidinyl]methanol hydrochloride]",remaining activity at 3.75 µM,[1]; Well no.=5875,113%
same,remaining activity at 1.25 µM,[2]; Well no.=5875,105%
NC[C@H](CC(=O)O)c1ccc(Cl)cc1 [(R)-baclofen],remaining activity at 3.75 µM,[1]; Well no.=5315,93.5%
same,remaining activity at 1.25 µM,[2]; Well no.=5315,96.9%
O=C(O)[C@H]1CCCN1 [(R)-pyrrolidine-2-carboxylic acid],remaining activity at 3.75 µM,[1]; Well no.=8700,101%
same,remaining activity at 1.25 µM,[2]; Well no.=8700,106%
O=C(O)[C@@H](O)Cc1ccccc1 [(S)-2-Hydroxy-3-phenylpropanoic acid],remaining activity at 3.75 µM,[1]; Well no.=7173,88.8%
same,remaining activity at 1.25 µM,[2]; Well no.=7173,96.3%
O=C(O)C[C@H](O)C(=O)O [(S)-2-Hydroxysuccinic acid],remaining activity at 3.75 µM,[1]; Well no.=6825,100%
same,remaining activity at 1.25 µM,[2]; Well no.=6825,105%
"N[C@H](C(=O)O)c1cc(O)cc(O)c1 [(S)-3,5-Dihydroxyphenylglycine]",remaining activity at 3.75 µM,[1]; Well no.=401,98.7%
same,remaining activity at 1.25 µM,[2]; Well no.=401,102%
"C[C@H](NC(=O)CC=C1NC(=O)c2ccccc2N1)c1ccccc1 [(S)-3-(4-oxo-3,4-dihydroquinazolin-2(1H)-ylidene)-N-(1-phenylethyl)propanamide]",remaining activity at 3.75 µM,[1]; Well no.=6083,95.2%
same,remaining activity at 1.25 µM,[2]; Well no.=6083,95.2%
C[C@H](O)CC(=O)O [(S)-3-Hydroxybutanoic acid],remaining activity at 3.75 µM,[1]; Well no.=7301,105%
same,remaining activity at 1.25 µM,[2]; Well no.=7301,109%
Cc1ncc(Cl)cc1NCc1ccc(C(=O)N[C@@H](CC2CCCC2)C(=O)NC2CC2)s1 [(S)-5-(((5-chloro-2-methylpyridin-3-yl)amino)methyl)-N-(3-cyclopentyl-1-(cyclopropylamino)-1-oxopropan-2-yl)thiophene-2-carboxamide],remaining activity at 3.75 µM,[1]; Well no.=5550,99.3%
same,remaining activity at 1.25 µM,[2]; Well no.=5550,94.4%
O=C(O)c1ccc(NC(=O)[C@H](CC2CCCC2)n2cnc(C(F)(F)F)c2)nc1 [(S)-6-(3-cyclopentyl-2-(4-(trifluoromethyl)-1H-imidazol-1-yl)propanamido)nicotinic acid],remaining activity at 3.75 µM,[1]; Well no.=6066,86.8%
same,remaining activity at 1.25 µM,[2]; Well no.=6066,83%
CC[C@@]1(O)C(=O)OCc2c1cc1n(c2=O)Cc2cc3ccccc3nc2-1 [(S)-(+)-Camptothecin],remaining activity at 3.75 µM,[1]; Well no.=483,90.7%
same,remaining activity at 1.25 µM,[2]; Well no.=483,100%
CCN1CCC[C@H]1CNC(=O)c1cc(S(N)(=O)=O)ccc1OC [(S)-(-)-Sulpiride],remaining activity at 3.75 µM,[1]; Well no.=1636,103%
same,remaining activity at 1.25 µM,[2]; Well no.=1636,98.3%
CCCNC[C@H](O)COc1ccccc1C(=O)CCc1ccccc1 [(S)-(-)-propafenone hydrochloride],remaining activity at 3.75 µM,[1]; Well no.=1451,93.6%
same,remaining activity at 1.25 µM,[2]; Well no.=1451,96.2%
OC[C@H]1O[C@@H](n2cnc3c(N[C@@H]4C[C@H]5CC[C@H]4C5)ncnc32)[C@H](O)[C@@H]1O [(S)-ENBA],remaining activity at 3.75 µM,[1]; Well no.=465,105%
same,remaining activity at 1.25 µM,[2]; Well no.=465,102%
N[C@@H](CCC(=O)O)C(=O)O [(S)-Glutamic acid],remaining activity at 3.75 µM,[1]; Well no.=6165,96.9%
same,remaining activity at 1.25 µM,[2]; Well no.=6165,98.9%
CC(C)C[C@H](O)C(=O)O [(S)-Leucic acid],remaining activity at 3.75 µM,[1]; Well no.=6633,109%
same,remaining activity at 1.25 µM,[2]; Well no.=6633,108%
"Cc1[nH]c2ccccc2c1CC(=O)N[C@@H](Cc1ccccc1)C(=O)N(C)c1ccccc1 [(S)-N-methyl-2-(2-(2-methyl-1H-indol-3-yl)acetamido)-N,3-diphenylpropanamide]",remaining activity at 3.75 µM,[1]; Well no.=5917,103%
same,remaining activity at 1.25 µM,[2]; Well no.=5917,106%
CC(C)(C)NC[C@H](O)COc1nsnc1N1CCOCC1 [(S)-Timolol (Maleate)],remaining activity at 3.75 µM,[1]; Well no.=7667,94.8%
same,remaining activity at 1.25 µM,[2]; Well no.=7667,92.8%
CC(C)(C)NC[C@H](O)COc1nsnc1N1CCOCC1 [(S)-Timolol maleate],remaining activity at 3.75 µM,[1]; Well no.=1739,97.3%
same,remaining activity at 1.25 µM,[2]; Well no.=1739,98.8%
OC[C@H]1O[C@@H](n2cnc3c(NCCc4c[nH]c5ccccc45)ncnc32)[C@H](O)[C@@H]1O [A2AR-agonist-1],remaining activity at 3.75 µM,[1]; Well no.=8653,105%
same,remaining activity at 1.25 µM,[2]; Well no.=8653,105%
NC[C@@H]1O[C@H](C23CC4CC(CC(C4)C2)C3)Cc2c1ccc(O)c2O [A-77636 hydrochloride],remaining activity at 3.75 µM,[1]; Well no.=212,99.3%
same,remaining activity at 1.25 µM,[2]; Well no.=212,102%
Cc1[nH]nc2ccc(-c3cncc(OC[C@@H](N)Cc4ccccc4)c3)cc12 [A-674563],remaining activity at 3.75 µM,[1]; Well no.=2991,99.1%
same,remaining activity at 1.25 µM,[2]; Well no.=2991,97%
COc1ccc(CC(=O)NC(N=C(NC#N)Nc2cccc3ncccc23)C(C)(C)C)cc1OC (stereo not shown) [A-740003],remaining activity at 3.75 µM,[1]; Well no.=5421,96.3%
same,remaining activity at 1.25 µM,[2]; Well no.=5421,92%
COc1cc(NC(=O)c2ccc(-c3ccc(Cl)cc3)o2)cc(OC)c1 [A-803467],remaining activity at 3.75 µM,[1]; Well no.=5117,103%
same,remaining activity at 1.25 µM,[2]; Well no.=5117,105%
CCC(=O)c1cc(-c2ccc(Cl)cc2)n(-c2ccc(S(N)(=O)=O)cc2)c1C [A-867744],remaining activity at 3.75 µM,[1]; Well no.=8320,94%
same,remaining activity at 1.25 µM,[2]; Well no.=8320,96.8%
CN(C)CC#Cc1ccc(OCCCc2sc(N3CCc4cccc(C(=O)Nc5nc6ccccc6s5)c4C3)nc2C(=O)O)c(F)c1 [A-1155463],remaining activity at 3.75 µM,[1]; Well no.=6344,97.3%
same,remaining activity at 1.25 µM,[2]; Well no.=6344,96.3%
Cc1nn(C)c(COc2ccc(N3CCN(S(=O)(=O)N(C)C)CC3)cc2)c1-c1cccc2c(CCCOc3cccc4ccccc34)c(C(=O)O)n(CCN3CCOCC3)c12 [A-1210477],remaining activity at 3.75 µM,[1]; Well no.=6970,101%
same,remaining activity at 1.25 µM,[2]; Well no.=6970,99.5%
Cc1c(-c2ccc(N3CCc4cccc(C(=O)Nc5nc6ccccc6s5)c4C3)nc2C(=O)O)cnn1CC12CC3CC(CC(C3)C1)C2 [A-1331852],remaining activity at 3.75 µM,[1]; Well no.=6592,93.5%
same,remaining activity at 1.25 µM,[2]; Well no.=6592,102%
CC1=C(C)C(=O)C(CCCCC#CCCCC#CCO)=C(C)C1=O [AA-861],remaining activity at 3.75 µM,[1]; Well no.=109,103%
same,remaining activity at 3.75 µM,[1]; Well no.=3941,102%
same,remaining activity at 1.25 µM,[2]; Well no.=109,106%
same,remaining activity at 1.25 µM,[2]; Well no.=3941,105%
CCCCC/C=C\C/C=C\C/C=C\C/C=C\CCCC(=O)C(F)(F)F [AACOCF3],remaining activity at 3.75 µM,[1]; Well no.=4486,102%
same,remaining activity at 1.25 µM,[2]; Well no.=4486,102%
CNC(=O)[C@H]1O[C@@H](n2cnc3c(NCc4ccc(N)cc4)ncnc32)[C@H](O)[C@@H]1O [AB-MECA],remaining activity at 3.75 µM,[1]; Well no.=306,87.8%
same,remaining activity at 3.75 µM,[1]; Well no.=8699,98.3%
same,remaining activity at 1.25 µM,[2]; Well no.=306,87.3%
same,remaining activity at 1.25 µM,[2]; Well no.=8699,95.8%
C[C@@H]1CCCN1CCc1cc2cc(-c3ccc(C#N)cc3)ccc2o1 [ABT-239],remaining activity at 3.75 µM,[1]; Well no.=8049,101%
same,remaining activity at 1.25 µM,[2]; Well no.=8049,103%
